How the values were obtained:
Format in all cases: in vivo
[1] = system: Candida albicans T.A.; experiment: Protective effect at a single dose of 1.04 μmol/kg against experimental Candida albicans TA infection in mice (Experiment 3); conditions: n = 5 mice; for Mean survival day of the mice which died, i.v. / No. of survivors, i.v.: 1.04 μmol/kg i.v.; for Mean survival day of the mice which died, i.v. / Mean survival day of the mice which died, p.o.: mice which had died up to 7 days after infection; for No. of survivors, i.v. / No. of survivors, p.o.: survivors on day 7 after infection; for Mean survival day of the mice which died, p.o. / No. of survivors, p.o.: 1.04 μmol/kg p.o.
Procedure: Method: Five-week-old Crj:CDF1 female mice were infected intravenously with minimum lethal dose of Candida albicans T.A. The test compounds were dissolved in 5% glucose solution and were administered intravenously (i.v.) or orally (p.o.) to the mice at a dose of 1.04 μmol/kg immediately after infection. Protective effect of each compound were expressed as the number of survivors on day 7 after infection and the mean survival days of the mice which had died up to 7 days after infection.
The protective effect of the reference compound shown in figure (V) is included in Table 7. The reference compound was suspended in 0.5% sodium carboxymethyl cellulose and was administered orally to the mice at a dose of 1.04 μmol/kg immediately after infection.

[2] = system: Candida albicans TA; experiment: Protective effect against experimental Candida albicans TA infection in mice, intravenous administration (Experiment 1); conditions: Crj:CDF1 female mice, compound in 5% glucose given intravenously immediately after infection, Reed and Muench from survival rates on day 7
Procedure: (§1) Method: Five-week-old Crj:CDF1 female mice were infected intravenously with minimum lethal dose of Candida albicans TA. The test compounds were dissolved in 5% glucose solution and were administered intravenously to the mice immediately after infection. Protective effects of the compounds were expressed as 50% effective dose (ED50) calculated using the method of Reed and Muench from survival rates on day 7 after infection.

[3] = system: Candida albicans TA; experiment: Protective effect against experimental Candida albicans TA infection in mice, oral administration (Experiment 2); conditions: Crj:CDF1 female mice, i.v. infection, compound in 5% glucose given orally immediately after infection; Reed and Muench from survival rates on day 7
Procedure: as §1, with “administered orally” for “administered intravenously”

Compound	Mean survival day of the mice which died, i.v. [1] [days]	No. of survivors, i.v. [1]	Mean survival day of the mice which died, p.o. [1] [days]	No. of survivors, p.o. [1]	ED50 i.v. [2] [µmol/kg]	ED50 p.o. [3] [µmol/kg]
CCC(=O)OC[n+]1cnn(C[C@](O)(c2ccc(F)cc2F)[C@@H](C)N2CCN(c3ccc(-n4cnnn4)cc3)C2=O)c1.[Cl-] [Compound 14, 1-[(2R,3R)-2-(2,4-difluorophenyl)-2-hydroxy-3-[2-oxo-3-[4-(1H-tetrazol-1-yl)phenyl]-1-imidazolidinyl]butyl]-4-propanoyloxymethyl-1H-1,2,4-triazolium chloride]	4.5	1	6.0	3		
CC(=O)OC[n+]1cnn(C[C@](O)(c2ccc(F)cc2F)[C@@H](C)N2CCN(c3ccc(-n4cnnn4)cc3)C2=O)c1.[Cl-] [Compound 12, 4-acetoxymethyl-1-[(2R,3R)-2-(2,4-difluorophenyl)-2-hydroxy-3-[2-oxo-3-[4-(1H-tetrazol-1-yl)phenyl]-1-imidazolidinyl]butyl]-1H-1,2,4-triazolium chloride]	4.5	3	5.0	4		
CCOC(=O)OC[n+]1cnn(C[C@](O)(c2ccc(F)cc2F)[C@@H](C)N2CCN(c3ccc(-n4cnnn4)cc3)C2=O)c1.[Cl-] [Compound 16, 1-[(2R,3R)-2-(2,4-difluorophenyl)-2-hydroxy-3-[2-oxo-3-[4-(1H-tetrazol-1-yl)phenyl]-1-imidazolidinyl]butyl]-4-ethoxycarbonyloxymethyl-1H-1,2,4-triazolium chloride]	6.0	4		5		
CC(=O)OC[n+]1cnn(C[C@](O)(c2ccc(F)cc2F)[C@@H](C)N2CCN(c3ccc(-n4cnnn4)cc3)C2=O)c1.[Br-] [Compound 11, 4-acetoxymethyl-1-[(2R,3R)-2-(2,4-difluorophenyl)-2-hydroxy-3-[2-oxo-3-[4-(1H-tetrazol-1-yl)phenyl]-1-imidazolidinyl]butyl]-1H-1,2,4-triazolium bromide]	4.0	2	6.0	3		
1-[(2R,3R)-2-(2,4-difluorophenyl)-2-hydroxy-3-[2-oxo-3-[4-(1H-1,2,3-triazol-1-yl)phenyl]-1-imidazolidinyl]butyl]-4-[(2,2-dimethylpropanoyloxy)methyl]-1H-1,2,4-triazolium chloride [Compound 1]					2.3	2.9
CC(N1CCN(c2ccc(-n3cnnn3)cc2)C1=O)C(O)(Cn1cncn1)c1ccc(F)cc1F (stereo not shown) [Reference compound (V), reference compound]			4.3	2		
1-[(2R,3R)-2-(2,4-difluorophenyl)-2-hydroxy-3-[2-oxo-3-[4-(1H-tetrazol-1-yl)phenyl]-1-imidazolidinyl]butyl]-4-(isopropoxycarbonyloxy)methyl-1H-1,2,4-triazolium chloride [Compound 18]	5.5	3	4.5	3		
C[C@@H](N1CCN(c2ccc(-n3cnnn3)cc2)C1=O)[C@](O)(C[n+]1cn(COC(=O)C(C)(C)C)cn1)c1ccc(F)cc1F.[Cl-] [Compound 2, 1-[(2R,3R)-2-(2,4-difluorophenyl)-2-hydroxy-3-[2-oxo-3-[4-(1H-tetrazol-1-yl)phenyl]-1-imidazolidinyl]butyl]-4-[(2,2-dimethylpropanoyloxy)methyl]-1,2,4-triazolium chloride]					1.5	1.8

Reference: patent publication US6407129B1, “Azole compounds, their production and their use” (Takeda Chemical Industries, Ltd., priority 1997, dated 2002)
